Test results from US20230310388A1, “Methods and Compositions for Treating Fungal Infections” (Neoculi Pty Ltd, priority 2020, published 2023).
Where “and” joins values, the source holds several entries; their conditions need not be identical. Identical values can stand only once.

Key:
[1] = system: Candida albicans ATCC14053; assay: Broth micro-dilution screen at 16 μg/mL and MIC (Example 9); format: cell-based; conditions: for MIC: C. albicans ATCC14053, test range 0.25-64 μg/mL, duplicate; for Screen at 16 μg/mL: single concentration 16 μg/mL, Growth or No growth of C. albicans ATCC14053
Protocol: The antifungal activity of 201 NCL analogs against Candida albicans ATCC14053 in vitro was investigated. A broth micro-dilution method was used, according to CLSI guidelines as described. NCL analogs were dissolved in DMSO and originally screened at a single concentration of 16 μg/mL.

Cryptococcus neoformans [2] = assay: CLSI broth microdilution MIC (Example 5); format: cell-based
Protocol: (§1) Antifungal minimum inhibitory concentration (MIC) testing was undertaken as recommended by the CLSI. Briefly, antifungal susceptibility tests were performed for amphotericin B, robenidine (NCL812) and robenidine analogs (NCL23, NCL24, NCL97, NCL113, NCL115, NCL195, NCL219, NCL220, NCL259, NCL265) by standard broth microdilution method (CLSI) in RPMI 1640. Various concentrations (ranging from high to low) of the selected compounds were prepared in RPMI 1640 medium by double dilution in 96-well microtitre plates. Each well contained an inoculum of approximately 2×10^3 cells/mL. The wells without addition of drugs served as negative (no inoculum) and positive (inoculum only) growth controls. Microtitre plates were incubated at 35° C. for 24-48 hours. […] Antifungal MICs were determined for each isolate in duplicate; if the values obtained were different, the MIC test was repeated a third time.

Candida albicans [3] = assay: CLSI broth microdilution MIC (Example 5); format: cell-based; conditions: for activity against one or more isolates of Cryptococcus neoformans and Candida albicans: summary in words
Protocol: as §1

Cryptococcus neoformans [4] = assay: CLSI broth microdilution MIC (Example 6); format: cell-based
Protocol: (§2) Antifungal minimum inhibitory concentration (MIC) testing was undertaken as recommended by the CLSI (1). Briefly, antifungal susceptibility tests were performed for amphotericin B, robenidine (NCL812) and 10 robenidine analogs (NCL023, NCL024, NCL097, NCL113, NCL115, NCL195, NCL219, NCL220, NCL259, NCL265) by standard broth microdilution method (CLSI) in RPMI 1640. Various concentrations (ranging from high to low) of the selected compounds were prepared in RPMI 1640 medium by double dilution in 96-well microtitre plates. Each well contained an inoculum of approximately 2×10^3 cells/mL. The wells without addition of drugs served as negative (no inoculum) and positive (inoculum only) growth controls. Microtitre plates were incubated at 35° C. for 24-48 hours. […] Antifungal MICs were determined for each isolate in duplicate; if the values obtained were different, the MIC test was repeated a third time.

Candida albicans [5] = assay: CLSI broth microdilution MIC (Example 6); format: cell-based
Protocol: as §2

Cryptococcus neoformans [6] = assay: CLSI broth microdilution MIC (Example 4); format: cell-based
Protocol: (§3) Antifungal minimum inhibitory concentration (MIC) testing was undertaken as recommended by the CLSI. Briefly, antifungal susceptibility tests were performed for amphotericin B, robenidine (NCL812) and robenidine (NCL) analogs (NCL004, NCL020, NCL023, NCL024, NCL062, NCL094, NCL097, NCL110, NCL113, NCL114, NCL115, NCL135, NCL139, NCL180, NCL181, NCL195, NCL219, NCL220, NCL228, NCL247, NCL250, NCL259, NCL260, NCL263, NCL265, NCL269, NCL274) by standard broth microdilution method (CLSI) in RPMI 1640. Various concentrations (ranging from high to low) of the selected compounds were prepared in RPMI 1640 medium by double dilution in 96-well microtitre plates. Each well contained an inoculum of approximately 2×10^3 cells/mL. The wells without addition of drugs served as negative (no inoculum) and positive (inoculum only) growth controls. Microtitre plates were incubated at 35° C. for 24-48 hours. […] Antifungal MICs were determined for each isolate in duplicate; if the values obtained were different, the MIC test was repeated a third time.

Candida albicans [7] = assay: CLSI broth microdilution MIC (Example 4); format: cell-based
Protocol: as §3

C. gattii = assay: CLSI broth microdilution MIC (Example 6); format: cell-based, Cryptococcus gattii
Protocol: as §2

[8] = clinical isolate C. albicans 12-93301752 Azole Resistant
[9] = clinical isolate C. albicans 14-90045999 Azole Resistant
[10] = clinical isolate C. albicans 15-45171061
[11] = clinical isolate C. albicans 15-91329871
[12] = clinical isolate C. albicans 16-24136919 Azole Resistant
[13] = clinical isolate C. albicans 16-46177400
[14] = clinical isolate C. albicans 16-90050810
[15] = clinical isolate C. albicans 16-90054237
[16] = clinical isolate C. albicans 18-144-00196
[17] = clinical isolate C. albicans 18-148-08188 Azole Resistant
[18] = human clinical isolate C. neoformans serotype A/D hybrid
[19] = human clinical isolate C. neoformans var grubii 16-90050434
[20] = human clinical isolate C. neoformans var grubii 17-90028233
[21] = human clinical isolate C. neoformans var grubii 17-93996464
[22] = human clinical isolate C. neoformans var grubii 17-93996964
[23] = human clinical isolate C. gatti 17-90232099
[24] = human clinical isolate C. gattii 16-90050373
[25] = human clinical isolate C. gattii 17-90028211
[26] = human clinical isolate C. gattii 17-90028217
[27] = human clinical isolate C. gattii 17-90028242

Compound | MIC [1] | Screen at 16 μg/mL [1] | MIC (Cryptococcus neoformans [2]; Cryptococcus neoformans SA1) | MIC (Cryptococcus neoformans [2]; Cryptococcus neoformans SA2) | MIC (Candida albicans [3]; C. albicans SA3) | MIC (Candida albicans [3]; Candida albicans ATCC 90028) | MIC (Candida albicans [3]; [8]) | MIC (Candida albicans [3]; [9]) | MIC (Candida albicans [3]; [10]) | MIC (Candida albicans [3]; [11]) | MIC (Candida albicans [3]; [12]) | MIC (Candida albicans [3]; [13]) | MIC (Candida albicans [3]; [14]) | MIC (Candida albicans [3]; [15]) | MIC (Candida albicans [3]; [16]) | MIC (Candida albicans [3]; [17]) | MIC at 24-48 hours (Cryptococcus neoformans [6]; Cryptococcus neoformans SA1) | MIC at 24-48 hours (Cryptococcus neoformans [6]; Cryptococcus neoformans SA2) | MIC at 24-48 hours (Candida albicans [7]; Candida albicans ATCC 90028) | MIC at 24-48 hours (Candida albicans [7]; Candida albicans SA3) | also measured
CN(C)c1ccc(/C=N/NC(=N)N/N=C/c2ccc(N(C)C)cc2)cc1.Cl [NCL113] | 4 µg/mL and 8 µg/mL | No growth | 4 µg/mL | 4 µg/mL | >32 µg/mL | >32 µg/mL | 8 µg/mL | 8 to 16 µg/mL | 8 µg/mL | 8 µg/mL | 8 µg/mL | 16 µg/mL | 16 µg/mL | 8 µg/mL | 8 µg/mL | 8 µg/mL | 4 µg/mL | 4 µg/mL | >32 µg/mL | >32 µg/mL | activity against one or more isolates of Cryptococcus neoformans and Candida albicans (Candida albicans [3]): highly active; MIC (Cryptococcus neoformans [4]; Cryptococcus neoformans SA1): 4 µg/mL; MIC (Cryptococcus neoformans [4]; Cryptococcus neoformans SA2): 4 µg/mL; MIC (Cryptococcus neoformans [4]; [18]): 4 µg/mL; MIC (Cryptococcus neoformans [4]; [19]): 4 µg/mL; MIC (Cryptococcus neoformans [4]; [20]): 4 µg/mL; MIC (Cryptococcus neoformans [4]; [21]): 4 µg/mL; MIC (Cryptococcus neoformans [4]; [22]): 4 µg/mL; MIC (Candida albicans [5]; C. albicans SA3): >32 µg/mL; MIC (Candida albicans [5]; Candida albicans ATCC 90028): >32 µg/mL; MIC (C. gattii; [23]): 4 µg/mL; MIC (C. gattii; [24]): 2 to 4 µg/mL; MIC (C. gattii; [25]): 4 µg/mL; MIC (C. gattii; [26]): 4 to 8 µg/mL; MIC (C. gattii; [27]): 2 to 4 µg/mL
Cl.N=C(NN=Cc1cccc(F)c1)NN=Cc1cccc(F)c1 [NCL023] | 8 µg/mL and 16 µg/mL | No growth | 16 µg/mL | 16 µg/mL | 32 µg/mL | 32 µg/mL | 16 µg/mL | >16 µg/mL | 16 µg/mL | 16 µg/mL | 8 µg/mL | >16 µg/mL | >16 µg/mL | 16 µg/mL | 16 µg/mL | 16 µg/mL | 16 µg/mL | 16 µg/mL | 32 µg/mL | 32 µg/mL | activity against one or more isolates of Cryptococcus neoformans and Candida albicans (Candida albicans [3]): highly active; MIC (Cryptococcus neoformans [4]; Cryptococcus neoformans SA1): 16 µg/mL; MIC (Cryptococcus neoformans [4]; Cryptococcus neoformans SA2): 16 µg/mL; MIC (Cryptococcus neoformans [4]; [18]): 8 µg/mL; MIC (Cryptococcus neoformans [4]; [19]): 8 µg/mL; MIC (Cryptococcus neoformans [4]; [20]): 8 µg/mL; MIC (Cryptococcus neoformans [4]; [21]): 8 µg/mL; MIC (Cryptococcus neoformans [4]; [22]): 8 µg/mL; MIC (Candida albicans [5]; C. albicans SA3): 32 µg/mL; MIC (Candida albicans [5]; Candida albicans ATCC 90028): 32 µg/mL; antifungal activity against the two isolates of Candida albicans (Candida albicans [7]; summary in words): high antifungal activity; MIC (C. gattii; [23]): 8 µg/mL; MIC (C. gattii; [24]): 8 µg/mL; MIC (C. gattii; [25]): 16 µg/mL; MIC (C. gattii; [26]): 16 µg/mL; MIC (C. gattii; [27]): 8 µg/mL
COc1ccc(C=NNC(=N)NN=Cc2ccc(OC)c(OC)c2)cc1OC.Cl [NCL115] |  | Growth | 8 µg/mL | 8 µg/mL | >32 µg/mL | >32 µg/mL | >16 µg/mL | 8 µg/mL | >16 µg/mL | >16 µg/mL | >16 µg/mL | >16 µg/mL | >16 µg/mL | >16 µg/mL | >16 µg/mL | >16 µg/mL | 8 µg/mL | 8 µg/mL | >32 µg/mL | >32 µg/mL | activity against one or more isolates of Cryptococcus neoformans and Candida albicans (Candida albicans [3]): highly active; MIC (Cryptococcus neoformans [4]; Cryptococcus neoformans SA1): 8 µg/mL; MIC (Cryptococcus neoformans [4]; Cryptococcus neoformans SA2): 8 µg/mL; MIC (Cryptococcus neoformans [4]; [18]): >32 µg/mL; MIC (Cryptococcus neoformans [4]; [19]): >32 µg/mL; MIC (Cryptococcus neoformans [4]; [20]): >32 µg/mL; MIC (Cryptococcus neoformans [4]; [21]): >32 µg/mL; MIC (Cryptococcus neoformans [4]; [22]): >32 µg/mL; MIC (Candida albicans [5]; C. albicans SA3): >32 µg/mL; MIC (Candida albicans [5]; Candida albicans ATCC 90028): >32 µg/mL; MIC (C. gattii; [23]): >32 µg/mL; MIC (C. gattii; [24]): >32 µg/mL; MIC (C. gattii; [25]): >32 µg/mL; MIC (C. gattii; [26]): >32 µg/mL; MIC (C. gattii; [27]): >32 µg/mL
Nc1nc(N/N=C/c2cc(O)c(O)c(O)c2)cc(N/N=C/c2cc(O)c(O)c(O)c2)n1 [NCL247] | 2 µg/mL and 4 µg/mL | No growth |  |  |  |  |  |  |  |  |  |  |  |  |  |  | >32 µg/mL | >32 µg/mL | >32 µg/mL | >32 µg/mL | 
